In one experiment the test system is A549. Kind of experiment: Antiproliferative activity against human A549 cells assessed as reduction in cell viability measured after 48 hrs by MTT assay. The experiment is classed as functional, cell-based. (Tetrazolium assays rely on reduction of a dye to a coloured formazan, in cell work by metabolically active cells.)
The nature of experiment [1]: (§1) Antiproliferative activity against human RKOP3 cells assessed as reduction in cell viability measured after 48 hrs by MTT assay. The experiment is classed as functional, cell-based.
The next experiment is filed under the species Homo sapiens. The experiment is described as §1. The experiment is classed as functional, cell-based.
The subject of experiment [2] is DU-145. Put plainly: Antiproliferative activity against human DU145 cells assessed as reduction in cell viability measured after 48 hrs by MTT assay. The note with it: for IC50: DU-145, 48 h. The experiment is classed as functional, cell-based.
The test system of the next experiment is HeLa. Put plainly: Antiproliferative activity against human HeLa cells assessed as reduction in cell viability measured after 48 hrs by MTT assay. The experiment is classed as functional, cell-based.
The test system of another experiment is HEK293. Kind of experiment: Cytotoxicity against human HEK293 cells assessed as reduction in cell viability measured after 48 hrs by MTT assay. It is filed as cell-based.
Experiment [3] in a line: Cell cycle arrest in human RKOP3 cells assessed as accumulation at G0/G1 phase at 1.5 uM measured after 24 hrs by propidium iodide staining based flow cytometry analysis (reference value: 59.59 %). It is filed as functional.
A short description of experiment [4]: Cell cycle arrest in human RKOP3 cells assessed as accumulation at G0/G1 phase at 3.3 uM measured after 24 hrs by propidium iodide staining based flow cytometry analysis (reference value: 59.59 %). It is filed as functional. (Flow cytometry measures light scatter and fluorescence of single cells or particles in a stream.)
Experiment [5] in a line: Cell cycle arrest in human RKOP3 cells assessed as accumulation at G0/G1 phase at 5 uM measured after 24 hrs by propidium iodide staining based flow cytometry analysis (reference value: 59.59 %). It is filed as functional.
Experiment [6] can be described thus: Induction of apoptosis in human RKOP3 cells assessed as live cells at 1.5 uM measured after 48 hrs by annexinV-FITC/propidium iodide staining based flow cytometry analysis (reference value: 98.19 %). It is filed as functional.
The nature of experiment [7]: Induction of apoptosis in human RKOP3 cells assessed as early apoptotic cells at 1.5 uM measured after 48 hrs by annexinV-FITC/propidium iodide staining based flow cytometry analysis (reference value: 1.8 %). It is filed as functional.
Experiment [8] in a line: Induction of apoptosis in human RKOP3 cells assessed as late apoptotic cells at 1.5 uM measured after 48 hrs by annexinV-FITC/propidium iodide staining based flow cytometry analysis (reference value: 0.01 %). It is filed as functional.
Experiment [9] in a line: Induction of apoptosis in human RKOP3 cells assessed as necrotic cells at 1.5 uM measured after 48 hrs by annexinV-FITC/propidium iodide staining based flow cytometry analysis (reference value: 0 %). It is filed as functional.
A short description of experiment [10]: Induction of apoptosis in human RKOP3 cells assessed as live cells at 3.3 uM measured after 48 hrs by annexinV-FITC/propidium iodide staining based flow cytometry analysis (reference value: 98.19 %). The experiment is classed as functional.
The nature of experiment [11]: Induction of apoptosis in human RKOP3 cells assessed as early apoptotic cells at 3.3 uM measured after 48 hrs by annexinV-FITC/propidium iodide staining based flow cytometry analysis (reference value: 1.8 %). The experiment is classed as functional.
Experiment [12] in a line: Induction of apoptosis in human RKOP3 cells assessed as late apoptotic cells at 3.3 uM measured after 48 hrs by annexinV-FITC/propidium iodide staining based flow cytometry analysis (reference value: 0.01 %). The experiment is classed as functional.
A short description of experiment [13]: Induction of apoptosis in human RKOP3 cells assessed as necrotic cells at 3.3 uM measured after 48 hrs by annexinV-FITC/propidium iodide staining based flow cytometry analysis (reference value: 0 %). It is filed as functional.
Experiment [14] in a line: Induction of apoptosis in human RKOP3 cells assessed as live cells at 5 uM measured after 48 hrs by annexinV-FITC/propidium iodide staining based flow cytometry analysis (reference value: 98.19 %). The experiment is classed as functional.
Experiment [15] is described as follows: Induction of apoptosis in human RKOP3 cells assessed as early apoptotic cells at 5 uM measured after 48 hrs by annexinV-FITC/propidium iodide staining based flow cytometry analysis (reference value: 1.8 %). The experiment is classed as functional.
The nature of experiment [16]: Induction of apoptosis in human RKOP3 cells assessed as late apoptotic cells at 5 uM measured after 48 hrs by annexinV-FITC/propidium iodide staining based flow cytometry analysis (reference value: 0.01 %). It is filed as functional.
The nature of experiment [17]: Induction of apoptosis in human RKOP3 cells assessed as necrotic cells at 5 uM measured after 48 hrs by annexinV-FITC/propidium iodide staining based flow cytometry analysis (reference value: 0 %). It is filed as functional.
The target in experiment [18] is T1, Tubulin (Homo sapiens) (UniProt P68371+Q9H4B7+P0DPH7+P68366+Q13509+Q71U36+P04350+Q3ZCM7+P07437+P68363+Q9BQE3+Q6PEY2+Q13885+Q9BVA1+Q9BUF5). Put plainly: Inhibition of tubulin […] in human DU145 cells assessed as increase in soluble fraction of tubulin at […] measured after 24 hrs by Western blot analysis. It is filed as cell-based. The note with it: DU-145. A general note: A western blot detects proteins with antibodies after separation by electrophoresis.

Experiment [19] has as its target T1, Tubulin (Homo sapiens). Kind of experiment: Inhibition of tubulin polymerization in human HeLa cells assessed as disruption of microtubule network at 10 uM measured after 24 hrs by immunofluorescence assay. The experiment is classed as cell-based.
In experiment [20] the test system is DU-145. Put plainly: Induction of apoptosis in human DU145 cells assessed as live cells at 2.54 uM measured after 24 hrs by annexinV-FITC/propidium iodide staining based flow cytometry analysis (reference value: 97.09 %). The experiment is classed as functional.
Experiment [21] concerns DU-145. Kind of experiment: Induction of apoptosis in human DU145 cells assessed as early apoptotic cells at 2.54 uM measured after 24 hrs by annexinV-FITC/propidium iodide staining based flow cytometry analysis (reference value: 2.34 %). The experiment is classed as functional.
Experiment [22] concerns DU-145. Kind of experiment: Induction of apoptosis in human DU145 cells assessed as late apoptotic cells at 2.54 uM measured after 24 hrs by annexinV-FITC/propidium iodide staining based flow cytometry analysis (reference value: 0.05 %). The experiment is classed as functional.
Experiment [23] has as its system DU-145. Put plainly: Induction of apoptosis in human DU145 cells assessed as necrotic cells at 2.54 uM measured after 24 hrs by annexinV-FITC/propidium iodide staining based flow cytometry analysis (reference value: 0.52 %). The experiment is classed as functional.
Experiment [24] is described as follows: Induction of apoptosis in human RKOP3 cells assessed as live cells at 2 uM measured after 24 hrs by annexinV-FITC/propidium iodide staining based flow cytometry analysis (reference value: 98.19 %). The experiment is classed as functional.
Experiment [25] is described as follows: Induction of apoptosis in human RKOP3 cells assessed as early apoptotic cells at 2 uM measured after 24 hrs by annexinV-FITC/propidium iodide staining based flow cytometry analysis (reference value: 1.8 %). The experiment is classed as functional.
Experiment [26] in a line: Induction of apoptosis in human RKOP3 cells assessed as late apoptotic cells at 2 uM measured after 24 hrs by annexinV-FITC/propidium iodide staining based flow cytometry analysis (reference value: 0.01 %). The experiment is classed as functional.
Experiment [27] in a line: Induction of apoptosis in human RKOP3 cells assessed as necrotic cells at 2 uM measured after 24 hrs by annexinV-FITC/propidium iodide staining based flow cytometry analysis (reference value: 0 %). It is filed as functional.

Activity calls are given as the source filed them. No cut-off for these calls is given here.

By IC50 is commonly meant the concentration needed to halve the response being measured. Consider `CCCCCCCCCC(=O)O/N=C1\C=C2C[C@H](C)[C@@]3(C)Cc4cc(OC)c(OC)c(OC)c4C23C(OC)=C1OC` (stereo partly drawn), for which the inhibition result in the experiment with A549, in the experiment listed under Homo sapiens, in the experiment with DU-145 [2] and in the experiment with HeLa was “Dose-dependent effect” throughout. The IC50 with A549 (A549, 48 h) came to 12.3 µM; in experiment [1], 3.35 µM; in the experiment with DU-145 [2] it was 10.5 µM; with HeLa, 60.2 µM; in the experiment with HEK293 (Homo sapiens, HEK293, 48 h, read-out: IC50) it was 84.5 µM. Also, the Activity in experiment [3] came to 60.68%; in experiment [4], 55.32%; in [5], 50.56%; in experiment [6] it was 92.41%; in experiment [7] it was 7.02%; in experiment [8] it was 0.57%. For the same compound, the Activity was 0% in experiment [9]; 90.64% in experiment [10]; 9.05% in [11]; 0.29% in experiment [12]; 0.02% in experiment [13]; 76.06% in experiment [14]. The Activity came to 21.6% in [15], 2.3% in experiment [16] and 0.04% in experiment [17]. In addition, the inhibition result on Tubulin (Homo sapiens) [18] and at Tubulin (Homo sapiens) [19] was “Active” in each case.
Consider `COc1cccc2c1C(=O)c1c(O)c3c(c(O)c1C2=O)C[C@@](O)(C(=O)CO)C[C@@H]3O[C@H]1C[C@H](N)[C@H](O)[C@H](C)O1` [DOXORUBICIN], for which the half-maximal inhibitory concentration (IC50) was 2.23 µM in [1], 2.54 µM in the experiment with DU-145 [2], 1.94 µM with HeLa and “Not Active” in the experiment on HEK293 (hek293). Further, the Activity in the experiment with DU-145 [20] came out at 46.09%; with DU-145 [21], 46.08%; with DU-145 [22], 7.83%; with DU-145 [23], 0%; in experiment [24], 60.97%; in [25] it was 37.21%. The figures for the Activity in [26] and in experiment [27] were 1.77% and 0.05%, respectively.

The values are drawn from ChEMBL document CHEMBL4622952, “Synthesis and biological evaluation of Schizandrin derivatives as tubulin polymerization inhibitors” (Bioorg Med Chem Lett, 2020).
